Molecules are shown by their SMILES.

The experiment deals with T1, human orexin-2 receptor (OX2R) (Homo sapiens, UniProt O43614).
T1 construct: expressed in transfected cells
T1 sequence (O43614 1-444): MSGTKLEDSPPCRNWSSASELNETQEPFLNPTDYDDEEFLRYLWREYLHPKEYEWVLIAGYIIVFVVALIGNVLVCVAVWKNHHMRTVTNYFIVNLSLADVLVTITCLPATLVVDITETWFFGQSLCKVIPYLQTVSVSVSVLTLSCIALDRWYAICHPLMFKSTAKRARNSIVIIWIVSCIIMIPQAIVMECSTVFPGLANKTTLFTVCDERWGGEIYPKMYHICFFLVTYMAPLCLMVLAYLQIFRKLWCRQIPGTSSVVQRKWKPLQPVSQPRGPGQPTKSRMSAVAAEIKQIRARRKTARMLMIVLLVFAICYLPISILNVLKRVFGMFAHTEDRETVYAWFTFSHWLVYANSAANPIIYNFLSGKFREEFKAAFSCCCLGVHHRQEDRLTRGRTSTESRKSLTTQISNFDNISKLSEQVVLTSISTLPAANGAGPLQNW
Put plainly: Human OX2R IP1 assay. The class given is cell-based. To be noted: T-Rex CHO cells stably overexpressing human OX2R; IP1 accumulation (HTRF); 1 hr at 37 degrees C. The procedure:
T-Rex CHO cells stably overexpressing the human orexin-2 receptor (OX2R) are induced overnight with 1 μg/mL of doxycycline in a T225 flask. 24 hours post induction, cells are lifted with accutase and plated into a 384-well proxy plate at 30,000 cells/well. Cells are then treated with different test compounds in 1× stimulation buffer containing 10 mM Hepes, 1 mM CaCl2, 0.5 mM MgCl2, 4.2 mM KCl, 146 mM NaCl, 5.5 mM glucose, and 50 mM LiCl, pH 7.4, for 1 hr at 37 degrees C. Following incubation, the reaction is terminated by the addition of detection mix, which is composed of IP1-d2 and anti-IP1-cryptate diluted in lysis buffer as well as 1× stimulation buffer. The plates are allowed to incubate for 1 hour at room temperature and are then read in the EnVision® multimode plate reader, measuring inositol phosphate levels.
Cisbio IP1 is a cell-based functional assay quantifying the accumulation of inositol monophosphate (IP), a metabolite released as a result of orexin 2 receptor activation through the phospholipase C-Gq signaling pathway. This is a competitive immunoassay in which the IP1 produced by the cells upon receptor activation competes with the IP1 analog coupled to the d2 fluorophore (acceptor) for binding to an anti-IP1 monoclonal antibody labeled with Eu cryptate (donor). The measured HTRF-FRET based signal is inversely proportional to the IP1 concentration produced.
The EC50 values reported in Table 2 were obtained according to the human OX2R IP1 assay described above. Data are the mean EC50 values ±S.E.M.
A general note: Time-resolved FRET reads energy transfer from a long-lived donor to a nearby acceptor.
Molecule `CS(=O)(=O)N[C@@H]1CCN(C(=O)C2CC2)C[C@@H]1OC[C@H]1CC[C@@H](c2ccccc2)CC1` (single isomer, unassigned) [Compound 37, N-[cis-1-cyclopropanecarbonyl-3-[(cis-4-phenylcyclohexyl)methoxy]piperidin-4-yl]methanesulfonamide] registered an EC50 of 0.1 to 10 µM.

In turn, `CC(C)(O)C(=O)N1CC[C@@H](NS(C)(=O)=O)[C@@H](OC[C@H]2CC[C@@H](c3ccccc3)CC2)C1` (single isomer, unassigned) [Compound 38] returned an EC50 of 0.1 to 10 µM.

Take `CS(=O)(=O)N[C@H]1CCN(c2ncco2)C[C@H]1OC[C@H]1CC[C@@H](c2ccccc2)CC1` (single isomer, unassigned) [Compound 39, N-(cis-1-(oxazol-2-yl)-3-((cis-4-phenylcyclohexyl)methoxy)piperidin-4-yl)methanesulfonamide]: the EC50 fell in the range of 0.1 to 10 µM.

`COC(=O)N1CC[C@H](NS(C)(=O)=O)[C@H](OC[C@H]2CC[C@@H](c3ccccc3)CC2)C1` (single isomer, unassigned) [Compound 40] came in with an EC50 of 0.1 to 10 µM.

`COC(=O)N1CC[C@@H](NS(C)(=O)=O)[C@@H](OC[C@H]2CC[C@@H](c3ccccc3)CC2)C1` (single isomer, unassigned) [Compound 41] came in with an EC50 greater than 10 µM.

`CS(=O)(=O)N[C@@H]1CCN(C(=O)C2(O)CCC2)C[C@@H]1OC[C@H]1CC[C@@H](c2ccccc2)CC1` (single isomer, unassigned) [Compound 43]: the EC50 is less than 0.1 µM.

The molecule `CS(=O)(=O)N[C@@H]1CCN(C(=O)C2(O)CCC2)C[C@@H]1OCC1CCC(c2ccccc2)CC1` (single isomer, unassigned) [Compound 44] had an EC50 greater than 10 µM.

Turning to `CC1(C(=O)N2CC[C@H](NS(C)(=O)=O)[C@H](OCC3CCC(c4ccccc4)CC3)C2)COC1` (single isomer, unassigned) [Compound 45], the EC50 lay within 0.1 to 10 µM.

`CC1(C(=O)N2CC[C@@H](NS(C)(=O)=O)[C@@H](OCC3CCC(c4ccccc4)CC3)C2)COC1` (single isomer, unassigned) [Compound 46] had a concentration giving a half-maximal response (EC50) greater than 10 µM.

For `Cn1ccc(N2CC[C@H](NS(C)(=O)=O)[C@H](OC[C@H]3CC[C@@H](c4ccccc4)CC3)C2)n1` (single isomer, unassigned) [Compound 47], the EC50 was 0.1 to 10 µM.

In turn, `Cn1ccc(N2CC[C@@H](NS(C)(=O)=O)[C@@H](OC[C@H]3CC[C@@H](c4ccccc4)CC3)C2)n1` (single isomer, unassigned) [Compound 48] had an EC50 greater than 10 µM.

`CS(=O)(=O)N[C@H]1CCN(C(=O)C2(F)CCC2)C[C@H]1OCC1CCC(c2ccccc2)CC1` (single isomer, unassigned) [Compound 49]: the EC50 is less than 0.1 µM.

`CS(=O)(=O)N[C@@H]1CCN(C(=O)C2(F)CCC2)C[C@@H]1OCC1CCC(c2ccccc2)CC1` (single isomer, unassigned) [Compound 50] showed an EC50 of 0.1 to 10 µM.

Turning to `CS(=O)(=O)N[C@H]1CCN(C2COC2)C[C@H]1OC[C@H]1CC[C@@H](c2ccccc2)CC1` (single isomer, unassigned) [Compound 51], the EC50 was greater than 10 µM.

As for `CS(=O)(=O)N[C@@H]1CCN(C2COC2)C[C@@H]1OC[C@H]1CC[C@@H](c2ccccc2)CC1` (single isomer, unassigned) [Compound 52], the EC50 is greater than 10 µM.

`Cn1ccnc1N1CC[C@H](NS(C)(=O)=O)[C@H](OCC2CCC(c3ccccc3)CC2)C1` (single isomer, unassigned) [Compound 53] yielded an EC50 greater than 10 µM.

Consider `Cn1ccnc1N1CC[C@@H](NS(C)(=O)=O)[C@@H](OC[C@H]2CC[C@@H](c3ccccc3)CC2)C1` (single isomer, unassigned) [Compound 54], for which the EC50 lay in the range of 0.1 to 10 µM.

Regarding `CS(=O)(=O)N[C@H]1CCN(c2cccnn2)C[C@H]1OC[C@H]1CC[C@@H](c2ccccc2)CC1` (single isomer, unassigned) [Compound 55], the EC50 was less than 0.1 µM.

`CS(=O)(=O)N[C@@H]1CCN(c2cccnn2)C[C@@H]1OC[C@H]1CC[C@@H](c2ccccc2)CC1` (single isomer, unassigned) [Compound 56] returned an EC50 of 0.1 to 10 µM.

The molecule `CS(=O)(=O)N[C@H]1CCN(CC2COC2)C[C@H]1OC[C@H]1CC[C@@H](c2ccccc2)CC1` (single isomer, unassigned) [Compound 57] yielded an EC50 greater than 10 µM.

In the case of `CS(=O)(=O)N[C@@H]1CCN(CC2COC2)C[C@@H]1OC[C@H]1CC[C@@H](c2ccccc2)CC1` (single isomer, unassigned) [Compound 58], the EC50 is greater than 10 µM.

With `Cn1cnc(N2CC[C@H](NS(C)(=O)=O)[C@H](OCC3CCC(c4ccccc4)CC3)C2)c1` (single isomer, unassigned) [Compound 59], the EC50 was 0.1 to 10 µM.

For `Cn1cnc(N2CC[C@@H](NS(C)(=O)=O)[C@@H](OC[C@H]3CC[C@@H](c4ccccc4)CC3)C2)c1` (single isomer, unassigned) [Compound 60], the EC50 was greater than 10 µM.

On to `C[C@@H](C1COC1)N1CC[C@H](NS(C)(=O)=O)[C@H](OCC2CCC(c3ccccc3)CC2)C1` (single isomer, unassigned) [Compound 61], for which the EC50 was greater than 10 µM.

`C[C@@H](C1COC1)N1CC[C@@H](NS(C)(=O)=O)[C@@H](OCC2CCC(c3ccccc3)CC2)C1` (single isomer, unassigned) [Compound 62] showed an EC50 greater than 10 µM.

As to `C[C@H](C1COC1)N1CC[C@H](NS(C)(=O)=O)[C@H](OCC2CCC(c3ccccc3)CC2)C1` (single isomer, unassigned) [Compound 63], the concentration for a half-maximal effect (EC50) is greater than 10 µM.

In turn, `C[C@H](C1COC1)N1CC[C@@H](NS(C)(=O)=O)[C@@H](OCC2CCC(c3ccccc3)CC2)C1` (single isomer, unassigned) [Compound 64] gave an EC50 greater than 10 µM.

`CS(=O)(=O)N[C@H]1CCN(C(=O)C2CCC2)C[C@H]1OCC1CCC(c2ccccc2)CC1` (single isomer, unassigned) [Compound 65] showed an EC50 of less than 0.1 µM.

The molecule `CS(=O)(=O)N[C@@H]1CCN(C(=O)C2CCC2)C[C@@H]1OCC1CCC(c2ccccc2)CC1` (single isomer, unassigned) [Compound 66] displayed an EC50 of 0.1 to 10 µM.

For `CS(=O)(=O)N[C@@H]1CCN(C(=O)C2(F)CC2)C[C@@H]1OC[C@H]1CC[C@@H](c2ccccc2)CC1` (single isomer, unassigned) [Compound 67], the EC50 is less than 0.1 µM.

`CS(=O)(=O)N[C@@H]1CCN(C(=O)C2(F)CC2)C[C@@H]1OCC1CCC(c2ccccc2)CC1` (single isomer, unassigned) [Compound 68] came in with a concentration giving a half-maximal response (EC50) of 0.1 to 10 µM.

Consider `CS(=O)(=O)N[C@H]1CCN(CC2(F)CCC2)C[C@H]1OCC1CCC(c2ccccc2)CC1` (single isomer, unassigned) [Compound 69], for which the EC50 fell in the range of 0.1 to 10 µM.

Regarding `CS(=O)(=O)N[C@@H]1CCN(CC2(F)CCC2)C[C@@H]1OCC1CCC(c2ccccc2)CC1` (single isomer, unassigned) [Compound 70], the EC50 was greater than 10 µM.

Regarding `COC1(C(=O)N2CC[C@H](NS(C)(=O)=O)[C@H](OC[C@H]3CC[C@@H](c4ccccc4)CC3)C2)CCC1` [Compound 42], the half-maximal effective concentration (EC50) was 0.1 to 10 µM.

For orientation: EC50 means the concentration needed to bring the measured effect to its halfway point.

The values are drawn from patent US20250223260A1, “Substituted Pyrrolidinyl And Piperidinyl Compounds And Related Methods Of Treatment” (Alkermes, Inc., priority 2022, published 2025).
